Source: patent US11730819B2, “Peptide derivatives having novel linkage structures” (priority 2016, dated 2023)
Where “and” joins values, the source holds several entries; their conditions need not be identical. Identical values can stand only once. Like-named read-outs stand apart in the source and are kept apart here.

Legend:
MT1-MMP hemopexin domain = target: T1, MT1-MMP hemopexin domain (Homo sapiens, UniProt P50281); assay: Fluorescence polarisation competition binding assay; conditions: human MT1-MMP
T1 construct: residues Cys319-Gly511 from the human gene; His6 (N); made in house; host or cells: HEK293 cells (transient, pEXPR-IBA42 vector)
Text: The MT1-MMP hemopexin-like repeats (also known as the MT1-MMP hemopexin domain), residues Cys319-Gly511 from the human gene, were transiently expressed in HEK293 cells as secreted N-terminally His6-tagged soluble protein, using the pEXPR-IBA42 (IBA) expression vector. Following expression, the protein was purified by Nickel-NTA affinity chromatography followed by gel filtration, and purity was checked by SDS-PAGE. Batch to batch variability was also monitored by fluorescence thermal shift experiments in the presence/absence of a hemopexin domain binding bicycle.
(§1) Binding affinity was measured using competition assays using Fluorescence Polarisation (anisotropy).
Fluoresceination may be performed on the N-terminal amino group of the peptide, which is separated from the bicycle core sequence by a sarcosine spacer (usually Sar5). This can be done during Fmoc solid phase synthesis or post-synthetically (after cyclisation with TBMB and purification) if the N-terminal amino group is unique to the peptide. Fluoresceination can also be performed on the C-terminus, usually on a Lysine introduced as the first C-terminal residue, which is then separated from the bicycle core sequence by a sarcosine spacer (usually Sar6). Thus, N-terminal tracers can have a molecular format described as Fluo-Gly-Sar5-A(BicycleCoreSequence), and (BicycleCoreSequence)-A-Sar6-K(Fluo) for a C-terminally fluoresceinated construct. Fluorescent tracers used in the Examples are A-(17-69)-A-Sar6-K(Fluo), A-(17-69-07)-A-Sar6-K(Fluo), and A-(17-69-12)-A-Sar6-K(Fluo).
(§2) Here, a pre-formed complex of PEX with the fluorescent PEX-binding tracer is titrated with free, non-fluoresceinated bicyclic peptide. Since all 17-69-based peptides are expected to bind at the same site, the titrant will displace the fluorescent tracer from PEX. Dissociation of the complex can be measured quantitatively, and the Kd of the competitor (titrant) to the target protein determined. The advantage of the competition method is that the affinities of non-fluoresceinated bicyclic peptides can be determined accurately and rapidly.
(§3) Subsequently, the non-fluorescent competitor bicyclic peptide (usually just the bicycle core sequence) is titrated, such that it displaces the fluorescent tracer from the target protein. The displacement of the tracer is measured and associated with a drop in fluorescence polarisation. The drop in fluorescence polarisation is proportional to the fraction of target protein bound with the non-fluorescent titrant, and thus is a measure of the affinity of titrant to target protein.
(§4) The raw data is fit to the analytical solution of the cubic equation that describes the equilibria between fluorescent tracer, titrant, and binding protein. The fit requires the value of the affinity of fluorescent tracer to the target protein, which can be determined separately by direct binding FP experiments (see previous section).

[1] = Plasma stability in human serum; type: in vitro ADME; conditions: 4 μm concentration, read-out: T1/2 in human serum
Text: (§5) The stability appears to be slightly greater than that of the corresponding conjugates in which the peptide is linked to the scaffold by three thioether linkages.

rat/mouse MT1-MMP = rat/mouse MT1-MMP (Mus musculus, UniProt P53690); assay: Binding affinity to rat/mouse MT1-MMP, measured as previously described; conditions: Binding Affinity (Ki in nM) rat/mouse ki, bicycle peptide-drug conjugates, two values given
Description: as §1, §2, §3
as §4, with “section). The curve fitting was performed using Sigmaplot 12.0 and used an adapted version of the equation described by Zhi-Xin Wang (FEBS Letters 360 (1995) 111-114).” for “section).”
The in vitro binding affinities of the bicycle peptide-drug conjugates prepared above were measured for MT1-MMP as previously described herein.

[2] = Plasma stability in mouse serum; type: in vitro ADME; conditions: 4 μm concentration, read-out: T1/2 in mouse serum
Text: as §5

HT1080 tumor cells = assay: In vivo efficacy against HT1080 tumors in BALB/c nude mice; conditions: biw dosing, BALB/c nude mice with HT1080 tumors
Description: HT1080 tumor cells were maintained in vitro as a monolayer culture in EMEM medium supplemented with 10% heat inactivated fetal bovine serum at 37 C in an atmosphere of 5% CO2 and air. The tumor cells were routinely subcultured twice weekly by trypsin-EDTA treatment. The cells growing in an exponential growth phase were harvested and counted for tumor inoculation.
BALB/c nude mice were inoculated subcutaneously at the right flank with HT1080 tumor cells […] in 0.2 ml of PBS for tumor development. 39 animals were randomized when the average tumor volume reached […].
The BDC compounds were formulated at 0.03 mg/ml in a vehicle buffer containing 25 mM histidine and 10% Sucrose. The formulations were administered twice weekly (biw) at 0.3, 1, 3 and 10 mg/kg. Tumor volume and body weight were measured up to 14 days from the first dosing.

MT1-MMP = MT1-MMP (Homo sapiens, UniProt P50281); assay: SPR binding; conditions: read-out: Binding Affinity Kd (SPR)
[3] = Binding Affinity (Ki in nM) Human ki, bicycle peptide-drug conjugates, two values given

| SMILES | Ki (MT1-MMP hemopexin domain; [3]) | half-life at 4 μm [1] [h] | Ki (rat/mouse MT1-MMP) | half-life at 4 μm [2] [h] | tolerated dose (HT1080 tumor cells) | Ki (MT1-MMP hemopexin domain; bicycle peptides, read-out: Binding Affinity Ki (h)) [nM] | Kd (MT1-MMP) [nM] |
| --- | --- | --- | --- | --- | --- | --- | --- |
| CC[C@H](C)[C@@H]([C@@H](CC(=O)N1CCC[C@H]1[C@H](OC)[C@@H](C)C(=O)N[C@H](C)[C@@H](O)c1ccccc1)OC)N(C)C(=O)[C@@H](NC(=O)[C@H](C(C)C)N(C)C(=O)OCc1ccc(NC(=O)[C@H](CCCNC(N)=O)NC(=O)[C@@H](NC(=O)Cn2cc(CCC(=O)NCCC(=O)N(C)CC(=O)N(C)CC(=O)N(C)CC(=O)N(C)CC(=O)N(C)CC(=O)N(C)CC(=O)N(C)CC(=O)N(C)CC(=O)N(C)CC(=O)N(C)CC(=O)N[C@@H](C)C(=O)N[C@H]3CNCc4cc5cc(c4)CSC[C@H](NC(=O)[C@@H](C)NC(=O)[C@H](Cc4cccc6ccccc46)NC(=O)[C@H](CCC(=O)O)NC(=O)[C@H](CC(N)=O)NC(=O)[C@@H](C)NC3=O)C(=O)N[C@@H](CCC(=O)O)C(=O)N[C@@H](CC(=O)O)C(=O)N[C@@H](Cc3ccccc3)C(=O)N[C@@H](Cc3ccc(O)cc3)C(=O)N[C@@H](CC(=O)O)C(=O)N[C@@H](C(C)(C)C)C(=O)N[C@H](C(N)=O)CNC5)nn2)C(C)C)cc1)C(C)C [BT17BDC-53] | 3.6 nM and 2.5 nM | > 50 | 1.8 nM and 1.6 nM | > 50 |  |  |  |
| CC[C@H](C)[C@@H]([C@@H](CC(=O)N1CCC[C@H]1[C@H](OC)[C@@H](C)C(=O)N[C@H](C)[C@@H](O)c1ccccc1)OC)N(C)C(=O)[C@@H](NC(=O)[C@H](C(C)C)N(C)C(=O)OCc1ccc(NC(=O)[C@H](CCCNC(N)=O)NC(=O)[C@@H](NC(=O)Cn2cc(CCC(=O)N[C@@H](C)C(=O)N[C@H]3CNCc4cc5cc(c4)CSC[C@H](NC(=O)[C@@H](C)NC(=O)[C@H](Cc4cccc6ccccc46)NC(=O)[C@H](CCC(=O)O)NC(=O)[C@H](CC(N)=O)NC(=O)[C@@H](C)NC3=O)C(=O)N[C@@H](CCC(=O)O)C(=O)N[C@@H](CC(=O)O)C(=O)N[C@@H](Cc3ccccc3)C(=O)N[C@@H](Cc3ccc(O)cc3)C(=O)N[C@@H](CC(=O)O)C(=O)N[C@@H](C(C)(C)C)C(=O)N[C@H](C(N)=O)CNC5)nn2)C(C)C)cc1)C(C)C [BT17BDC-59] | 2.8 nM and 2.7 nM |  | 1.8 nM and 1.7 nM |  | up to 3 mg/kg |  |  |
| C#CCCC(=O)NCCC(=O)N(C)CC(=O)N(C)CC(=O)N(C)CC(=O)N(C)CC(=O)N(C)CC(=O)N(C)CC(=O)N(C)CC(=O)N(C)CC(=O)N(C)CC(=O)N(C)CC(=O)N[C@@H](C)C(=O)N[C@H]1CN(C)Cc2cc3cc(c2)CN(C)C[C@@H](C(N)=O)NC(=O)[C@H](C(C)(C)C)NC(=O)[C@H](CC(=O)O)NC(=O)[C@H](Cc2ccc(O)cc2)NC(=O)[C@H](Cc2ccccc2)NC(=O)[C@H](CC(=O)O)NC(=O)[C@H](CCC(=O)O)NC(=O)[C@H](CSC3)NC(=O)[C@@H](C)NC(=O)[C@H](Cc2cccc3ccccc23)NC(=O)[C@H](CCC(=O)O)NC(=O)[C@H](CC(N)=O)NC(=O)[C@@H](C)NC1=O [17-69-07-N450, (PYA)-(B-Ala)-Sar10-A(Dap(Me))(D-Ala)NE(1Nal)(D-Ala)CEDFYD(tBuGly)(Dap(Me))] |  |  |  |  |  | 3.7 | 1.91 |
